Assay results as given in PMC6004087, “Production of the compatible solute α-D-glucosylglycerol by metabolically engineered Corynebacterium glutamicum” (Microbial Cell Factories, 2018).

Target: T1, OtsA (trehalose 6-phosphate synthase; OtsA-Strep) (Corynebacterium glutamicum, UniProt Q8NMF3)
T1 construct: gene Cgl2624; full-length OtsA with C-terminal Strep-tag kept (pASK-IBA3-otsA), expressed in E. coli BL21(DE3), Strep-Tactin purified, 53 kDa
T1 sequence (Q8NMF3 1-485): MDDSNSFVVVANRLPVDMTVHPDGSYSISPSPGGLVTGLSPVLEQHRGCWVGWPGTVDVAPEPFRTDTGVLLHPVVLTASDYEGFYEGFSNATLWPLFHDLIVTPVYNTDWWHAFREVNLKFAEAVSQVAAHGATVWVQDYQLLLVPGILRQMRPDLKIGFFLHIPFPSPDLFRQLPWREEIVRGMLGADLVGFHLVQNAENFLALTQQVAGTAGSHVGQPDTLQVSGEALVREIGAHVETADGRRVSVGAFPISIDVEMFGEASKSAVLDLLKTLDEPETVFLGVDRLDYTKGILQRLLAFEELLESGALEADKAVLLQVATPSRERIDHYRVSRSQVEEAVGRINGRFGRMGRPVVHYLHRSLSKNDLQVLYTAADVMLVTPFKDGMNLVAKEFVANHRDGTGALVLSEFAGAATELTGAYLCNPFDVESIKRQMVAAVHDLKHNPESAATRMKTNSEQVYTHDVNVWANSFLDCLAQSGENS
Test: GC of trehalose after alkaline phosphatase treatment of trehalose-6-phosphate
Type: biochemical
Conditions: co-substrate 3 mM glucose-6-phosphate; 10 mM Tris-maleate, 5 mM MgCl2, 0.05 mM EDTA, pH 7.5, 30 °C; 3 mM or 5 mM sugar nucleotide

Question: How did the specific activity turn out when `Nc1ncnc2c1ncn2[C@@H]1O[C@H](COP(=O)(O)OP(=O)(O)O[C@H]2O[C@H](CO)[C@@H](O)[C@H](O)[C@H]2O)[C@@H](O)[C@H]1O` [ADP-glucose] was run?
Answer: The specific activity was “C. glutamicum OtsA used UDP- as well as ADP-glucose as precursor for trehalose-phosphate synthesis”.
